Measurements from ChEMBL document CHEMBL5321235, “Design, synthesis, and SAR study of novel flavone 1,2,4-oxadiazole derivatives with anti-inflammatory activities for the treatment of Parkinson's disease” (Eur J Med Chem, 2023).
Calls of active or inactive are those of the source. The calls are words filed in the database; no cut-off is given here.

Assays:
BV-2 [1] = test: Antiinflammatory activity in mouse BV-2 cells assessed as inhibition of LPS-induced NO production at 5 uM pretreated for 18 hrs followed by LPS-induction and measured after 6 hrs relative to control; format: functional; set-up: scale not given: the % may be the effect or the level left; settings: time 24 hrs
BV-2 [2] = test: Inhibition of LPS-induced ROS production in mouse BV-2 cells at 5 uM pretreated for 18 hrs followed by LPS-stimulation and measured after 6 hrs by fluorescence microscopic analysis; format: functional, cell-based; settings: time 24.0 hrs
BV-2 [3] = test: Cytotoxicity against mouse BV-2 cells assessed as reduction in cell viability at 5 uM pretreated for 18 hrs followed by LPS-stimulation and measured after 6 hrs by MTT assay; format: toxicity, cell-based; settings: bv-2, 24 h
BV-2 [4] = test: Cytotoxicity against mouse BV-2 cells assessed as reduction in cell viability at 10 uM pretreated for 18 hrs followed by LPS-stimulation and measured after 6 hrs by MTT assay; format: toxicity, cell-based; settings: bv-2, 24 h
BV-2 [5] = test: Inhibition of NF-kappaB activation in LPS-stimulated mouse BV-2 cells assessed as increase in IkappaBalpha expression at 5 to 10 uM pretreated for 18 hrs followed by LPS-stimulation and measured after 6 hrs by Western blot analysis; format: cell-based; settings: dose 5-10 µM, time 24.0 hrs
BV-2 [6] = test: Antiinflammatory activity in LPS-induced mouse BV-2 cells assessed as reduction in CD86 mRNA expression at 5 to 10 uM pretreated for 18 hrs followed by LPS-stimulation and measured after 6 hrs by qRT-PCR analysis; format: functional, cell-based; settings: dose 5-10 µM, time 24.0 hrs
BV-2 [7] = test: Antiinflammatory activity in LPS-induced mouse BV-2 cells assessed as reduction in TNF-alpha mRNA expression at 5 to 10 uM pretreated for 18 hrs followed by LPS-stimulation and measured after 6 hrs by qRT-PCR analysis; format: functional, cell-based; settings: dose 5-10 µM, time 24.0 hrs
BV-2 [8] = test: Antiinflammatory activity in LPS-induced mouse BV-2 cells assessed as reduction in IL-1beta mRNA expression at 5 to 10 uM pretreated for 18 hrs followed by LPS-stimulation and measured after 6 hrs by qRT-PCR analysis; format: functional, cell-based; settings: dose 5-10 µM, time 24.0 hrs
BV-2 [9] = test: Antiinflammatory activity in LPS-induced mouse BV-2 cells assessed as reduction in IL-6 mRNA expression at 5 to 10 uM pretreated for 18 hrs followed by LPS-stimulation and measured after 6 hrs by qRT-PCR analysis; format: functional, cell-based; settings: dose 5-10 µM, time 24.0 hrs
BV-2 [10] = test: Antiinflammatory activity in LPS-induced mouse BV-2 cells assessed as increase in CD206 mRNA expression at 5 to 10 uM pretreated for 18 hrs followed by LPS-stimulation and measured after 6 hrs by qRT-PCR analysis; format: functional, cell-based; settings: dose 5-10 µM, time 24.0 hrs
BV-2 [11] = test: Antiinflammatory activity in LPS-induced mouse BV-2 cells assessed as increase in Arg-1 mRNA expression at 5 to 10 uM pretreated for 18 hrs followed by LPS-stimulation and measured after 6 hrs by qRT-PCR analysis; format: functional, cell-based; settings: dose 5-10 µM, time 24.0 hrs
BV-2 [12] = test: Antiinflammatory activity in LPS-induced mouse BV-2 cells assessed as increase in IL-10 mRNA expression at 5 to 10 uM pretreated for 18 hrs followed by LPS-stimulation and measured after 6 hrs by qRT-PCR analysis; format: functional, cell-based; settings: dose 5-10 µM, time 24.0 hrs
BV-2 [13] = test: Inhibition of LPS-induced ERK phosphorylation in mouse BV-2 cells at 5 to 10 uM pretreated for 12 hrs followed by LPS-stimulation and measured after 6 hrs by Western blot analysis; format: cell-based; settings: dose 5-10 µM, time 18.0 hrs
[14] = molecular target: MAP kinase p38 (Mus musculus) (UniProt P47811+O08911+Q9WUI1+Q9Z1B7); test: Inhibition of LPS-induced p38 phosphorylation in mouse BV-2 cells at 5 to 10 uM pretreated for 12 hrs followed by LPS-stimulation and measured after 6 hrs by Western blot analysis; format: cell-based; settings: dose 5-10 µM, time 18.0 hrs
[15] = molecular target: c-Jun N-terminal kinase (Mus musculus) (UniProt Q91Y86+Q9WTU6+Q61831); test: Inhibition of LPS-induced JNK phosphorylation in mouse BV-2 cells at 5 to 10 uM pretreated for 12 hrs followed by LPS-stimulation and measured after 6 hrs by Western blot analysis; format: cell-based; settings: dose 5-10 µM, time 18.0 hrs
BV-2 [16] = test: Inhibition of LPS-induced NF-kappaB nuclear translocation in mouse BV-2 cells at 5 to 10 uM pretreated for 18 hrs followed by LPS-stimulation and measured after 6 hrs by immunofluorescence analysis; format: cell-based; settings: dose 5-10 µM, time 24.0 hrs
BV-2 [17] = test: Induction of apoptosis in LPS-induced mouse BV-2 cells assessed as increase in BAX expression at 5 to 10 uM pretreated for 18 hrs followed by LPS-stimulation and measured after 6 hrs by Western blot analysis; format: functional, cell-based; settings: dose 5-10 µM, time 24.0 hrs
BV-2 [18] = test: Induction of apoptosis in LPS-induced mouse BV-2 cells assessed as increase in Caspase3 expression at 5 to 10 uM pretreated for 18 hrs followed by LPS-stimulation and measured after 6 hrs by Western blot analysis; format: functional, cell-based; settings: dose 5-10 µM, time 24.0 hrs
BV-2 [19] = test: Induction of apoptosis in mouse LPS-induced BV-2 cells assessed as increase in cleaved Caspase-3 expression at 5 to 10 uM pretreated for 18 hrs followed by LPS-stimulation and measured after 6 hrs by Western blot analysis; format: functional, cell-based; settings: dose 5-10 µM, time 24.0 hrs
BV-2 [20] = test: Induction of apoptosis in mouse LPS-induced BV-2 cells assessed as increase in Bcl-2 expression at 5 to 10 uM pretreated for 18 hrs followed by LPS-stimulation and measured after 6 hrs by Western blot analysis; format: functional, cell-based; settings: dose 5-10 µM, time 24.0 hrs
BV-2 [21] = test: Induction of apoptosis in LPS-induced mouse BV-2 cells assessed as increase in BAX expression at 5 to 10 uM pretreated for 18 hrs followed by LPS-stimulation and measured after 6 hrs by immunofluorescence analysis; format: functional, cell-based; settings: dose 5-10 µM, time 24.0 hrs
BV-2 [22] = test: Induction of apoptosis in LPS-induced mouse BV-2 cells assessed as increase in Caspase3 expression at 5 to 10 uM pretreated for 18 hrs followed by LPS-stimulation and measured after 6 hrs by immunofluorescence analysis; format: functional, cell-based; settings: dose 5-10 µM, time 24.0 hrs
BV-2 [23] = test: Induction of apoptosis in LPS-induced mouse BV-2 cells assessed as increase in cleaved Caspase-3 expression at 5 to 10 uM pretreated for 18 hrs followed by LPS-stimulation and measured after 6 hrs by immunofluorescence analysis; format: functional, cell-based; settings: dose 5-10 µM, time 24.0 hrs
BV-2 [24] = test: Induction of apoptosis in LPS-induced mouse BV-2 cells assessed as increase in Bcl-2 expression at 5 to 10 uM pretreated for 18 hrs followed by LPS-stimulation and measured after 6 hrs by immunofluorescence analysis; format: functional, cell-based; settings: dose 5-10 µM, time 24.0 hrs
BV-2 [25] = test: Induction of apoptosis in LPS-induced mouse BV-2 cells assessed as increase in Bcl-2 mRNA expression at 5 to 10 uM pretreated for 18 hrs followed by LPS-stimulation and measured after 6 hrs by qRT-PCR analysis; format: functional, cell-based; settings: dose 5-10 µM, time 24.0 hrs
BV-2 [26] = test: Induction of apoptosis in LPS-induced mouse BV-2 cells assessed as increase in BAX mRNA expression at 5 to 10 uM pretreated for 18 hrs followed by LPS-stimulation and measured after 6 hrs by qRT-PCR analysis; format: functional, cell-based; settings: dose 5-10 µM, time 24.0 hrs
BV-2 [27] = test: Induction of apoptosis in LPS-induced mouse BV-2 cells assessed as increase in Caspase3 mRNA expression at 5 to 10 uM pretreated for 18 hrs followed by LPS-stimulation and measured after 6 hrs by qRT-PCR analysis; format: functional, cell-based; settings: dose 5-10 µM, time 24.0 hrs
Mus musculus [28] = test: Anti-parkinson activity in MPTP-induced C57BL/6J mouse model assessed as increase in locomotion at 15 to 35 mg/kg, ip administered with compound once daily for 2 weeks followed by MPTP addition on day 8 and measured after 2 weeks of compound addition by open field test; format: functional, organism-based; settings: dose 15-35 mg/kg
Mus musculus [29] = test: Anti-parkinson activity in MPTP-induced C57BL/6J mouse model at 15 to 35 mg/kg, ip administered with compound once daily for 2 weeks followed by MPTP addition on day 8 and measured after 2 weeks of compound addition by rotarod test; format: functional, organism-based; settings: dose 15-35 mg/kg
Mus musculus [30] = test: Antiinflammatory activity in C57BL/6J mouse assessed as inhibition of MPTP-induced p38 phosphorylation at 15 mg/kg, ip administered with compound once daily for 2 weeks followed by MPTP addition on day 8 and measured after 2 weeks of compound addition Western blot analysis; format: functional, organism-based
Mus musculus [31] = test: Antiinflammatory activity in C57BL/6J mouse assessed as inhibition of MPTP-induced ERK phosphorylation at 15 mg/kg, ip administered with compound once daily for 2 weeks followed by MPTP addition on day 8 and measured after 2 weeks of compound addition Western blot analysis; format: functional, organism-based
Mus musculus [32] = test: Antiinflammatory activity in C57BL/6J mouse assessed as inhibition of MPTP-induced NF-kappaB phosphorylation at 15 mg/kg, ip administered with compound once daily for 2 weeks followed by MPTP addition on day 8 and measured after 2 weeks of compound addition Western blot analysis; format: functional, organism-based
Mus musculus [33] = test: Antiinflammatory activity in MPTP-induced C57BL/6J mouse assessed as increase in IL-10 expression at 15 mg/kg, ip administered with compound once daily for 2 weeks followed by MPTP addition on day 8 and measured after 2 weeks of compound addition Western blot analysis; format: functional, organism-based
Microglia [34] = test: Neuroprotective activity against MPTP-induced apoptosis in mouse microglia assessed as reduction in apoptotic cells in brain tissue at 15 mg/kg, ip administered with compound once daily for 2 weeks followed by MPTP addition on day 8 and measured after 2 weeks of compound addition by TUNEL staining based immunofluorescence analysis; format: functional, organism-based
Microglia [35] = test: Neuroprotective activity against MPTP-induced apoptosis in mouse microglia assessed as […] expression in brain tissue at 15 mg/kg, ip administered with compound once daily for 2 weeks followed by MPTP addition on day 8 and measured after 2 weeks of compound addition; format: functional, organism-based
Microglia [36] = test: (§1) Neuroprotective activity against MPTP-induced apoptosis in mouse microglia assessed as increase in Caspase3 expression in brain tissue at 15 mg/kg, ip administered with compound once daily for 2 weeks followed by MPTP addition on day 8 and measured after 2 weeks of compound addition by Western blot analysis; format: functional, organism-based
Microglia [37] = test: as §1, with “BAX” for “Caspase3”; format: functional, organism-based
Microglia [38] = test: as §1, with “Bcl2” for “Caspase3”; format: functional, organism-based

c-Jun N-terminal kinase (Mus musculus), sequence (Q61831 whole entry, looked up): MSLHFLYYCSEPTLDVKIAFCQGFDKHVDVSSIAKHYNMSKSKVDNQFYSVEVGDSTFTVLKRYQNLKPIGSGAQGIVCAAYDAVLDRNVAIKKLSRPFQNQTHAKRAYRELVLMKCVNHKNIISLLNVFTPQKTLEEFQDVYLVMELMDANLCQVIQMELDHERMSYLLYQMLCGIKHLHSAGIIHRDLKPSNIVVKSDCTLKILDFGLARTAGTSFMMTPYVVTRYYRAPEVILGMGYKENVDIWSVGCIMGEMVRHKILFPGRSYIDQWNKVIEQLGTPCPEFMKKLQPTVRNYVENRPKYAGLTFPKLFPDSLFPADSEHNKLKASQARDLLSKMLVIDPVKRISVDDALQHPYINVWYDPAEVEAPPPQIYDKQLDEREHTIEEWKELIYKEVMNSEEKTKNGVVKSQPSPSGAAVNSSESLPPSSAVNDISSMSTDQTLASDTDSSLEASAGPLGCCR
c-Jun N-terminal kinase (Mus musculus), sequence (Q91Y86 whole entry, looked up): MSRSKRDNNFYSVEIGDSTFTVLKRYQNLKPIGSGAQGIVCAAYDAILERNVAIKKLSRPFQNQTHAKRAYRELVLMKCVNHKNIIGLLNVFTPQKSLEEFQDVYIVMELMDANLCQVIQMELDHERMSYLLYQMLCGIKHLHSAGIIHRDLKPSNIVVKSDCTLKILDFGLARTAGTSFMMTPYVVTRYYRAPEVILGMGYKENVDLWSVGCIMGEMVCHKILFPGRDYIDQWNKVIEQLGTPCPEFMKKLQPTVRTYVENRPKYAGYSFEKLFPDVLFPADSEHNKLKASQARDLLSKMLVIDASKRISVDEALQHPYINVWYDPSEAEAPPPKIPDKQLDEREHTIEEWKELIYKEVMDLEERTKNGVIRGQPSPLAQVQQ
c-Jun N-terminal kinase (Mus musculus), sequence (Q9WTU6 whole entry, looked up): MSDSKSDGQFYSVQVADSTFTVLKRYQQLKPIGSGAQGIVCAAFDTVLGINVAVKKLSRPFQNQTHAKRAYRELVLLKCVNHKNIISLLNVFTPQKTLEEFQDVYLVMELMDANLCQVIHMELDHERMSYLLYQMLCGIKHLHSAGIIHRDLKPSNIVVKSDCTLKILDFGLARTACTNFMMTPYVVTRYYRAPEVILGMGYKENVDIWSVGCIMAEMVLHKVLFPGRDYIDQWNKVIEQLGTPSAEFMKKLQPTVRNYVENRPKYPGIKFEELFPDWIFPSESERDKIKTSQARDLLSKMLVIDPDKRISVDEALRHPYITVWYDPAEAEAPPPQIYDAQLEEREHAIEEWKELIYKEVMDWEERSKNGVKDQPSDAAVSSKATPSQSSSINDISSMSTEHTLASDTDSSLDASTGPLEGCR

For `COc1cccc(-c2noc(-c3cccc4c(=O)c(C)c(-c5ccccc5)oc34)n2)c1`, the Activity (BV-2 [1]) was 22.4% and the inhibition (BV-2 [2]) was “inactive”.

With `Cc1c(-c2ccccc2)oc2c(-c3nc(-c4ccccc4)no3)cccc2c1=O` the Activity (BV-2 [1]) was 22.4% and the inhibition (BV-2 [2]) was “Active”.

For `Cc1c(-c2ccccc2)oc2c(-c3nc(-c4ccc(F)cc4)no3)cccc2c1=O`, the Activity (BV-2 [3]) was “Non-Toxic”, the Activity (BV-2 [4]) was “Non-Toxic” and the Activity (BV-2 [1]) was 41.6%. For the same compound, the inhibition (BV-2 [2]) was “Active”.

With `Cc1c(-c2ccccc2)oc2c(-c3nc(-c4cccc(Br)c4)no3)cccc2c1=O` the Activity (BV-2 [3]) was “Non-Toxic”, the Activity (BV-2 [1]) was 41.6% and the inhibition (BV-2 [2]) was “Active”.

In the case of `COc1ccc(-c2noc(-c3cccc4c(=O)c(C)c(-c5ccccc5)oc34)n2)cc1`, the Activity (BV-2 [1]) is reported as 22.4% and the inhibition (BV-2 [2]) is reported as “Active”.

With `Cc1ccc(-c2noc(-c3cccc4c(=O)c(C)c(-c5ccccc5)oc34)n2)cc1` the Activity (BV-2 [1]) was 22.4% and the inhibition (BV-2 [2]) was “Active”.

`Cc1c(-c2ccccc2)oc2c(-c3nc(-c4ccccc4F)no3)cccc2c1=O` was tested, and the Activity (BV-2 [1]) was 41.6% and the inhibition (BV-2 [2]) was “Active”.

For `Cc1ccccc1-c1noc(-c2cccc3c(=O)c(C)c(-c4ccccc4)oc23)n1`, the Activity (BV-2 [1]) was 22.4% and the inhibition (BV-2 [2]) was “Active”.

In the case of `Cc1cccc(-c2noc(-c3cccc4c(=O)c(C)c(-c5ccccc5)oc34)n2)c1`, the Activity (BV-2 [3]) is reported as “Non-Toxic”, the Activity (BV-2 [4]) is reported as “Non-Toxic” and the Activity (BV-2 [1]) is reported as 64.2%. For the same compound, the inhibition (BV-2 [2]) was “Active”, the inhibition (BV-2 [5]) was “Active” and the Activity (BV-2 [6]) was “Active”. The Activity (BV-2 [7]) was “Active”, the Activity (BV-2 [8]) was “Active” and the Activity (BV-2 [9]) was “Active”. The Activity (BV-2 [10]) was “Active”, the Activity (BV-2 [11]) was “Active” and the Activity (BV-2 [12]) was “Active”. The inhibition (BV-2 [13]) was “Active”, the inhibition [14] was “Active” and the inhibition [15] was “Active”. The inhibition (BV-2 [16]) was “Active”, the Activity (BV-2 [17]) was “Active” and the Activity (BV-2 [18]) was “Active”. For the same compound, the Activity (BV-2 [19]) was “Active”, the Activity (BV-2 [20]) was “Active” and the Activity (BV-2 [21]) was “Active”. The Activity (BV-2 [22]) was “Active”, the Activity (BV-2 [23]) was “Active” and the Activity (BV-2 [24]) was “Active”. For the same compound, the Activity (BV-2 [25]) was “Active”, the Activity (BV-2 [26]) was “Active” and the Activity (BV-2 [27]) was “Active”. For the same compound, the Activity (Mus musculus [28]) was “Active”, the Activity (Mus musculus [29]) was “Active” and the Activity (Mus musculus [30]) was “Active”. For the same compound, the Activity (Mus musculus [31]) was “Active”, the Activity (Mus musculus [32]) was “Active” and the Activity (Mus musculus [33]) was “Active”. For the same compound, the Activity (Microglia [34]) was “Active”, the Activity (Microglia [35]) was “Active” and the Activity (Microglia [36]) was “Active”. For the same compound, the Activity (Microglia [37]) was “Active” and the Activity (Microglia [38]) was “Active”.
